Experiment [1] concerns the target T1, Protein skinhead-1 (Caenorhabditis elegans, UniProt P34707).
T1 sequence (P34707 whole entry): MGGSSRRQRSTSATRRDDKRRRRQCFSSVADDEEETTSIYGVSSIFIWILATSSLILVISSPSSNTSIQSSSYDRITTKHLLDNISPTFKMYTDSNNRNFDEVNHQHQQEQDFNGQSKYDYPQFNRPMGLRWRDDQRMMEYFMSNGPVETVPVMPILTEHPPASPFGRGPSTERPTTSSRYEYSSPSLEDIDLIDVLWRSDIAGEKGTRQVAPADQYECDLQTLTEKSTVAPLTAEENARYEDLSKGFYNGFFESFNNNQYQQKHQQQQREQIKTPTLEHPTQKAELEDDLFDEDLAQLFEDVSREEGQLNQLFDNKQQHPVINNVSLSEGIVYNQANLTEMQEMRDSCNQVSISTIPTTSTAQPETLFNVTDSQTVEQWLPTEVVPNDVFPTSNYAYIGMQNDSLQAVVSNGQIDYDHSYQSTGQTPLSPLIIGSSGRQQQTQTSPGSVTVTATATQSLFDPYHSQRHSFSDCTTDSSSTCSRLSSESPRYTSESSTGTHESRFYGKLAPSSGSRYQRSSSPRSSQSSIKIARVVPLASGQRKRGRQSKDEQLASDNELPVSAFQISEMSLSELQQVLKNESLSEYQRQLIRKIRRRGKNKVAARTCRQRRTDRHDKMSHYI
It is filed as functional.

In experiment [2] the target is T2, Fibrinogen beta chain (Homo sapiens, UniProt P02675). Kind of experiment: Fluorescence polarization-based biochemical high throughput dose response assay to identify inhibitors that disrupt the binding of a cyclic peptide (Tn6) to the fibrin proteolytic product D-Dimer and fragment E complex [DD(E )]. (In general: Polarisation of emitted light reports the rotation of a fluorescent probe.)

Experiment [3] concerns the target T2, Fibrinogen beta chain. Kind of experiment: Fluorescence polarization-based biochemical high throughput dose response assay to identify inhibitors that disrupt the binding of a cyclic peptide (Tn7) to the fibrin proteolytic product D-Dimer and fragment E complex [DD(E )].
The nature of experiment [4]: inhibitors of non-replicating M. tuberculosis, dose response, luciferase, dry powder (AID 651619). It is filed as functional. The following applies: Mycobacterium tuberculosis.
Experiment [5] in a line: cytotoxicity in HeLa cells, dose response, cytotoxicity control, cell-based, plate reader, dry powder (AID 651946). The format is functional.
A short description of experiment [6]: HEK293T cell cytotoxicity, dose response, cytotoxicity control, CellTiter-Glo luminescence, dry powder, set 6 (AID 651949). The following applies: HEK293. The format is functional, cell-based. (ATP-based viability assays read luminescence as a measure of living cells.)
A short description of experiment [7]: inhibitors of non-replicating M. tuberculosis, dose response, luciferase, dry powder (AID 651620). It is filed as functional. The following applies: Mycobacterium tuberculosis.
Experiment [8] deals with Peroxisome proliferator-activated receptor gamma/Nuclear receptor corepressor 2 (Homo sapiens, UniProt P37231+Q9Y618). Kind of experiment: Counterscreen for NR2E3 inverse agonists: TR-FRET-based biochemical high throughput dose response assay to identify inverse agonists of the interaction between peroxisome proliferator-activated receptor gamma (PPARg) and nuclear receptor co-repressor 2 (NCOR2). It is filed as functional.

Experiment [9] concerns the target Photoreceptor-specific nuclear receptor (Homo sapiens, UniProt Q9Y5X4). Kind of experiment: NR2E3 inverse agonists, dose response, biochemical, TR-FRET (AID 463256). The format is functional. (In TR-FRET formats the signal depends on donor and acceptor labels being close together.)
The target in experiment [10] is T3, Small ubiquitin-related modifier 1 (Homo sapiens, UniProt P63165). Put plainly: inhibitors of SUMO1 peptide binding, dose response, biochemical, fluorescence polarization, uHTS hits (AID 624382). The format is functional. The following applies: read-out: IC50_Mean.
Experiment [11] concerns the target T3, Small ubiquitin-related modifier 1. Kind of experiment: inhibitors of SUMO1 partner interactions, dose response, biochemical, FRET (AID 624383). The format is functional. To be noted: read-out: IC50_Mean.
Experiment [12] has as its target E3 ubiquitin-protein ligase UHRF1 (Homo sapiens, UniProt Q96T88). Kind of experiment: Counterscreen for inhibitors of 5-meCpG-binding domain protein 2 (MBD2): TRFRET-based biochemical high throughput dose response assay to identify inhibitors of binding of ubiquitin-like with PHD and ring finger domains 1 (UHRF1) to methylated oligonucleotide.
Experiment [13] in a line: growth suppression of PTEN-null colon cells, dose response, cell-based, HCT116 PTEN knockout (AID 1047).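 Note: HCT116 colon tumor cells with PTEN knocked out; cells exposed to compound for 60 hours before readout; potency for loss of cell viability measured by luminescence.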 The format is functional.
Experiment [14] is described as follows: growth suppression of beta-catenin-knockout colon cells, dose response, cell-based, HCT116, human colon tumor (AID 1045).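 Note: HCT116 colon tumor cells with beta catenin knocked out; cells exposed to compound for 60 hours.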 The format is functional.
In experiment [15] the target is T4, Microphthalmia-associated transcription factor (Homo sapiens, UniProt O75030).
T4 sequence (O75030 whole entry): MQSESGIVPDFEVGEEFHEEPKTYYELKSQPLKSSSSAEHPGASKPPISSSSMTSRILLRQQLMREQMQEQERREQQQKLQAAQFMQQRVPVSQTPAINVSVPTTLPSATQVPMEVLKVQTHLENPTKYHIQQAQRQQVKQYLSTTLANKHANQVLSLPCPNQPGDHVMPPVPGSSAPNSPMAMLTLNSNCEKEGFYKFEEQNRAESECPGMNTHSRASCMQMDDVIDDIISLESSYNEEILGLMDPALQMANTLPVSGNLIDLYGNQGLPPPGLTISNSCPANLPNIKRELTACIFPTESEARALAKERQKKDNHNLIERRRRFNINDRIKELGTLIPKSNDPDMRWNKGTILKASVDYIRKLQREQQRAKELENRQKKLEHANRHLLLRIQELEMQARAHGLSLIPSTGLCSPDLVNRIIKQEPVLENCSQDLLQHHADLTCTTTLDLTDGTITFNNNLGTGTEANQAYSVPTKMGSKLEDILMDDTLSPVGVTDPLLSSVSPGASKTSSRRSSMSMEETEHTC
Kind of experiment: TRPM1 promoter luciferase signal decrease, dose response, MITF inhibitor project, cell-based, SK-MEL-5, cherry-picked, set 3 (AID 493073).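 Note: SK-MEL-5 melanoma cells with luciferase driven by the MITF target TRPM1 promoter.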 The format is functional.

In experiment [16] the test system is A-375. Kind of experiment: MITF: Counter assay: A375 proliferation Measured in Cell-Based System Using Plate Reader - 2084-03_Inhibitor_Dose_DryPowder_Activity. [Related pubchem assays (depositor defined):AID488944]. It is filed as functional. The following applies: Homo sapiens.
The subject of experiment [17] is A-375. Put plainly: A375 melanoma cell viability reduction, dose response, counter-screen for MITF modulator project, cherry-pick samples, set 2 (AID 540335). It is filed as functional, cell-based. The following applies: Homo sapiens.
Experiment [18] can be described thus: Shn3 3'UTR reporter inhibitors, dose response, cell-based, Clone20 osteoblasts, firefly luciferase, cherry-picked (AID 624132).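 Note: firefly luciferase luminescence from reporter carrying the Shn3 3'UTR in osteoblasts.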 It is filed as functional.
Experiment [19] is described as follows: HepG2 cell cytotoxicity, dose response, cytotoxicity control for Shn3 inhibitor project, CellTiter-Glo, cherry-picked (AID 624134). The format is functional, cell-based.
Experiment [20] can be described thus: control 3'UTR Renilla luciferase suppression, dose response, counter-screen for Shn3 inhibitor project, cell-based, Clone20-Shn3RL, cherry-picked (AID 624133). The format is functional.
A short description of experiment [21]: HepG2 cell cytotoxicity, dose response, cytotoxicity control, cherry-picks, set 5 (AID 1053118). It is filed as functional, cell-based.
Experiment [22] in a line: inhibitors of fibronectin matrix deposition, dose response, AH1F cells, Alexa488-FN fluorescence, cherry-picks (AID 1035475). It is filed as functional, cell-based.

Each structure is given as a SMILES string. Active and inactive are the calls of the source.

T3 sequence (P63165 whole entry): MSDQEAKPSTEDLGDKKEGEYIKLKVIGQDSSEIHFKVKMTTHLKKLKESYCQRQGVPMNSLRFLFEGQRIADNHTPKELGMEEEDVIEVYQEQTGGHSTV
T2 sequence (P02675 whole entry, the tested form may be a part): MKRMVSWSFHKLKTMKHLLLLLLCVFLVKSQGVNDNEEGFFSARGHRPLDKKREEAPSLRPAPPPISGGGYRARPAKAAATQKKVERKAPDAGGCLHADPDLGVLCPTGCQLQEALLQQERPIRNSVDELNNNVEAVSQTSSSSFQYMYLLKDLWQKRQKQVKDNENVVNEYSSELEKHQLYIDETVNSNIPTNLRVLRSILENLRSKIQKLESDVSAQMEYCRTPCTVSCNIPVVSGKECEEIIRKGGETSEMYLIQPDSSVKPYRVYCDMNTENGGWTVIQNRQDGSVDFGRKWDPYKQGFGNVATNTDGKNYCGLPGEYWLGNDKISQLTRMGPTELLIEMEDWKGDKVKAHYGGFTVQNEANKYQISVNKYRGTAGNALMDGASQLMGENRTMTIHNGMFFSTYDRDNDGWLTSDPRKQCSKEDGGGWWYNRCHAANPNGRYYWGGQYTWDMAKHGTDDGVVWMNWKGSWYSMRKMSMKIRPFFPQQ
Sequence of Peroxisome proliferator-activated receptor gamma/Nuclear receptor corepressor 2 (P37231 whole entry): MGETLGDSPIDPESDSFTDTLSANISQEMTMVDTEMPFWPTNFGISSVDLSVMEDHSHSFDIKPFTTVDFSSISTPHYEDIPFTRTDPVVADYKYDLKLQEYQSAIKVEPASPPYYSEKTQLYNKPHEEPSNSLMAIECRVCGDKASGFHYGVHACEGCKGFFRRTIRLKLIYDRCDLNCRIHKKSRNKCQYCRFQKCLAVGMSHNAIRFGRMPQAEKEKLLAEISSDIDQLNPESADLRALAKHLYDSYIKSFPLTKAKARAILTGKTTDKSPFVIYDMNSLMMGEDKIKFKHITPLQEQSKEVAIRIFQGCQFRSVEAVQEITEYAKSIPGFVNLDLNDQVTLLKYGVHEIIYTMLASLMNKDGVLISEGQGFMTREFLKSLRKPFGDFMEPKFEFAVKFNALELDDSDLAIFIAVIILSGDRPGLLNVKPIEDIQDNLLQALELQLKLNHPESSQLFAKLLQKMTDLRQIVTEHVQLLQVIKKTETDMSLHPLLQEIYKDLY
Sequence of Peroxisome proliferator-activated receptor gamma/Nuclear receptor corepressor 2 (Q9Y618 whole entry): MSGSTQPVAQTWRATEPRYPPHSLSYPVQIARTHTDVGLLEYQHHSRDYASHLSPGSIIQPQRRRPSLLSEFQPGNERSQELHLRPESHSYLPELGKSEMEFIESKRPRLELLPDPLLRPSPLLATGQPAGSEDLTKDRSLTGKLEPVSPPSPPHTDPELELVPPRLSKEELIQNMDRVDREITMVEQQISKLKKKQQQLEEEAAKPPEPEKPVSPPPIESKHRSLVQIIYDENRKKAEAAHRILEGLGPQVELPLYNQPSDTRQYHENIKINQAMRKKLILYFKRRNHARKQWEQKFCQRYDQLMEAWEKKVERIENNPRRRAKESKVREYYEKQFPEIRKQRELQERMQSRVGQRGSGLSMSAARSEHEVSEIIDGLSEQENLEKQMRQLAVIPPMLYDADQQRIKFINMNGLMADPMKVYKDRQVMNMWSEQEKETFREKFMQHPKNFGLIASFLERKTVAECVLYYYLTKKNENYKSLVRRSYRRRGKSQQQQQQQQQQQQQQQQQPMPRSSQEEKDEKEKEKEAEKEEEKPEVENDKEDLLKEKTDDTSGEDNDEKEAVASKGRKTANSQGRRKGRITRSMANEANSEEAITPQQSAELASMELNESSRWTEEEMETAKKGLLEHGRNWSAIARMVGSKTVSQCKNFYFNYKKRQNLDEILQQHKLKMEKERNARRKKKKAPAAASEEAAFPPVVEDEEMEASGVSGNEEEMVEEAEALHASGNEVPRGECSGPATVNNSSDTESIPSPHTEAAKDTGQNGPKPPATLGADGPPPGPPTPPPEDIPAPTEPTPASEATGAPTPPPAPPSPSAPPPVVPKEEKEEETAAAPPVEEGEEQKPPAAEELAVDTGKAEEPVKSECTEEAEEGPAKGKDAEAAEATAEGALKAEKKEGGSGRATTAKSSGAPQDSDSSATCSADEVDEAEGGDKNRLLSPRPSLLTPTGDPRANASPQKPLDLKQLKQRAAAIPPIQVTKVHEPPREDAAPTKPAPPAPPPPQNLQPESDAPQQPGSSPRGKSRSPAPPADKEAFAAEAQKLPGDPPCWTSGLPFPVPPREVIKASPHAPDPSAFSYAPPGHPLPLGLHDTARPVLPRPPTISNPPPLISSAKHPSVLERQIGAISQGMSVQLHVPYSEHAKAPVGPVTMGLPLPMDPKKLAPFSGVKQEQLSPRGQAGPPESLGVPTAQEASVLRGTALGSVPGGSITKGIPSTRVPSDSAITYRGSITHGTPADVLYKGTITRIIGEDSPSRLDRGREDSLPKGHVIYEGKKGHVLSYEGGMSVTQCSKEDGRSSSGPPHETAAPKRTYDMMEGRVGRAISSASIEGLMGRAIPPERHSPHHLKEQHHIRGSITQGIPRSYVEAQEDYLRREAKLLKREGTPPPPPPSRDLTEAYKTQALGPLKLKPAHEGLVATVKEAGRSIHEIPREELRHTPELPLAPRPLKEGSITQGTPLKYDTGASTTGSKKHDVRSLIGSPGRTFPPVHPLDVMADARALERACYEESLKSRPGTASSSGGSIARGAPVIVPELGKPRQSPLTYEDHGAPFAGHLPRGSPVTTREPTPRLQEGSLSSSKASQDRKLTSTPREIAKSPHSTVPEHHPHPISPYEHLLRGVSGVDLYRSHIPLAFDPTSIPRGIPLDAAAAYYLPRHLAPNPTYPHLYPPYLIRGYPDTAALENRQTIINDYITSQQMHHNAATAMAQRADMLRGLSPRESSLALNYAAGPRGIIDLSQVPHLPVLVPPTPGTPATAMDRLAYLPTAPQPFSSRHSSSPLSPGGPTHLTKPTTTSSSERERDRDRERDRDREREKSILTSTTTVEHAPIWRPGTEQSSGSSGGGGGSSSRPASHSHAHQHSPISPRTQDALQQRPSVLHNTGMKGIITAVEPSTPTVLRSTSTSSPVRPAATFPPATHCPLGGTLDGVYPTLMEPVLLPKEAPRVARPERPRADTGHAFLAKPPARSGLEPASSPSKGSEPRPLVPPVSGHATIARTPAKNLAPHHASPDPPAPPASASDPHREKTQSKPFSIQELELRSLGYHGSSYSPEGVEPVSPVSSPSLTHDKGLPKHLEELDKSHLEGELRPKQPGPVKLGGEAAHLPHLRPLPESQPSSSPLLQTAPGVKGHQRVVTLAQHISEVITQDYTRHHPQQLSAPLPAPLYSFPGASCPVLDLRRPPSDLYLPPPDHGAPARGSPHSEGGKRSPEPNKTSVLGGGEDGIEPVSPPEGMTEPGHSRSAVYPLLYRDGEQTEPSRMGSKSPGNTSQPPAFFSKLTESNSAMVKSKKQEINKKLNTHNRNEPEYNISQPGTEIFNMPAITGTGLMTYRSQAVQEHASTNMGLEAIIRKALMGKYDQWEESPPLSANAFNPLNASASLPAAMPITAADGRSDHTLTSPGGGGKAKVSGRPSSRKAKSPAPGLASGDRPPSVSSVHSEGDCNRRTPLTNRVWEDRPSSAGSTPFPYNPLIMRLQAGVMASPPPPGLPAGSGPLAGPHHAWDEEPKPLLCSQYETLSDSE
Sequence of E3 ubiquitin-protein ligase UHRF1 (Q96T88 whole entry, the tested form may be a part): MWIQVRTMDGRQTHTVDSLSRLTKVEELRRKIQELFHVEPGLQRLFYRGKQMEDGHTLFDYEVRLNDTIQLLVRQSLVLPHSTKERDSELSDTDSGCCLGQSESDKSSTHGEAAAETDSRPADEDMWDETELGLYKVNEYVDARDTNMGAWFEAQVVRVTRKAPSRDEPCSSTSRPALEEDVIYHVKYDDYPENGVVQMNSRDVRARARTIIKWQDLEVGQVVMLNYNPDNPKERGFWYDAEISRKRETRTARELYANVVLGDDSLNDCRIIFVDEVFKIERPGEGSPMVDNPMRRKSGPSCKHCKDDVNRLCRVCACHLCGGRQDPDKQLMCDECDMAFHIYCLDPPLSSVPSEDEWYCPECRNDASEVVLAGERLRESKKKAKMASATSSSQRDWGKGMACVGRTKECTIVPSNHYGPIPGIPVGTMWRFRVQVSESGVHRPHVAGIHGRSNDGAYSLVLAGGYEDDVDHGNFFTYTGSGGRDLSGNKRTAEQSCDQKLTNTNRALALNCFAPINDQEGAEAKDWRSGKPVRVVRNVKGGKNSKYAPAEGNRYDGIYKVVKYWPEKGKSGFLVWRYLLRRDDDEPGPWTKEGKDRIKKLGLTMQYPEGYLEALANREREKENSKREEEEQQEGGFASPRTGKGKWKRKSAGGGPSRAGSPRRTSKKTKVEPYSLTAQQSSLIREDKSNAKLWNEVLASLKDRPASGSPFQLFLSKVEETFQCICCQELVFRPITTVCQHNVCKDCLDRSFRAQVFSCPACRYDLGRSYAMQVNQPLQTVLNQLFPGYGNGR
Sequence of Photoreceptor-specific nuclear receptor (Q9Y5X4 whole entry): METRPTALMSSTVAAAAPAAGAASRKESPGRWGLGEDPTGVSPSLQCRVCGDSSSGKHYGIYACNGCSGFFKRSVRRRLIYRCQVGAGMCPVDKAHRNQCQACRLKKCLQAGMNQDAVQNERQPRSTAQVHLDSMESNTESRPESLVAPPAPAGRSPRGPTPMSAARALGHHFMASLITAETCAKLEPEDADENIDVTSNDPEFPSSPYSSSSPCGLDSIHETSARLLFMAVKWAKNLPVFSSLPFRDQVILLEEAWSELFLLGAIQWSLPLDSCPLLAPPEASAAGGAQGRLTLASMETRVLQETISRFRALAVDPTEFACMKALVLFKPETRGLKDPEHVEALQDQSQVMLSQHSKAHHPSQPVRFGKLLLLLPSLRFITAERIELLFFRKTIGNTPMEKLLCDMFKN

For `c1ccc2c(c1)CCN(C1=Nc3cccc4cccc1c34)C2`, the IC50 was > 100 µM (inactive) in [1], 46.1 µM (inactive) in [2] and > 83.3 µM (inactive) in experiment [3].

Take `Fc1ccc(Cn2cc(CSc3nnc(-c4ccc(Cl)cc4)o3)nn2)cc1`: the IC90 in experiment [4] and in experiment [7] was 1 µM (active) in each case. Besides, the AC50 in [5] and in experiment [6] was > 52 µM (inactive) throughout.

As for `N#CCC(=O)Nc1ccc(C(=O)OCC(=O)c2ccc3c(c2)NC(=O)CO3)cc1`, the IC50 is 4.39 µM (active) in experiment [8]; 4.46 µM (active) in experiment [9]; > 66.6 µM (inactive) in [10]; 10.1 µM (active) in experiment [11]; > 43.8 µM (inactive) in experiment [12].

On to `Cn1cc([N+](=O)[O-])c(C(=O)Nc2cc(Oc3ccccc3)cc([N+](=O)[O-])c2)n1`, for which the EC50 was 389 nM (active) in experiment [13] and 309 nM (active) in [14]. Moreover, the AC50 in experiment [15] was 12.4 µM (active); in experiment [16] it was > 35 µM (active); in experiment [17], > 35 µM (active); in experiment [18], 5.41 µM (active); in experiment [19] it was 19.8 µM (active); in experiment [20] it was 2.82 µM (active). Moreover, the AC50 in experiment [21] is 21.9 µM (active); in experiment [22], 12.3 µM (active).

By IC90 is commonly meant the concentration at which the effect reaches the 90% level. A word on the AC50: it is the midpoint of the concentration-response curve, whichever way the signal moves. As a reminder, the EC50 is the concentration needed to bring the measured effect to its halfway point.

Source of the values: ChEMBL document CHEMBL1201862, “PubChem BioAssay data set” (2004).
